Results as given in PMC8318231, “Rate-of-Kill (RoK) assays to triage large compound sets for Chagas disease drug discovery: Application to GSK Chagas Box” (PLoS Neglected Tropical Diseases, 2021).

Tests used:
[1] = test system: T. cruzi Tulahuen trypomastigotes; assay: T. cruzi trypomastigote assay (Cell Titer-Glo viability, ATP luminescence); assay type: cell-based, Trypanosoma cruzi; conditions: for Trypomastigotes pIC50 48 hours: 48 hours incubation; for Trypomastigotes pIC50 48 hours / Trypomastigotes pIC50 72 hours: pIC50 = -log10 IC50 in molar units; for Trypomastigotes pIC50 72 hours: 72 hours incubation; for 48 pIC50 / 72 pIC50: trypomastigote assay; for 48 pIC50: 48 h; for 72 pIC50: 72 h
Description: T. cruzi Tulahuen trypomastigotes obtained from the supernatants of LLC-MK2 infected cultures in a 225 cm^2 T-Flasks harvested between days 5 and 8 of infection. Trypomastigotes (5 × 10^4 per well) in 50 μl of DMEM/ 2% FBS were dispensed into white 384 plates (Greiner) pre-stamped with 250 nl compound a single-shot final concentration of 5 μM, or in dose response. […] Cell Titer-Glo cell viability solution (Promega) was added to each well (50 μL) incubated at room temperature for 10 min and luminescence read by Envision plate reader (Perkin Elmer). This assay quantifies the amount of ATP present which is directly proportional to the number of metabolically active cells. All data were normalised (100% effect control for no cells and 0% effect control for DMSO). This assay was adapted from MacLean et al., 2018 [22].

[2] = test system: TcCYP51; conditions: formerly reported; cited from earlier work

Structure (SMILES): Cc1ccc(NC(=O)C(C)n2nc([N+](=O)[O-])c(Br)c2C)cc1Cl (centres unmarked) [TCMDC-143338]
- Trypomastigotes pIC50 48 hours [1]: 5.5
- Trypomastigotes pIC50 72 hours [1]: 5.3
- CYP51 pIC50 [2]: < 4

Structure (SMILES): O=C(NCC1CCCCC1)c1cnns1 [TCMDC-143612]
- Trypomastigotes pIC50 48 hours [1]: 4.7
- Trypomastigotes pIC50 72 hours [1]: 4.9
- CYP51 pIC50 [2]: < 4

Structure (SMILES): Cc1cc(C#N)c([N+](=O)[O-])cc1Br [TCMDC-143541]
- Trypomastigotes pIC50 48 hours [1]: 5.8
- Trypomastigotes pIC50 72 hours [1]: 5.5
- CYP51 pIC50 [2]: 5.1

Structure (SMILES): CCC(c1ccc(F)cc1)n1cncc1-c1cnn(C)c1 (centres unmarked) [TCMDC-143416]
- Trypomastigotes pIC50 48 hours [1]: < 4.3
- Trypomastigotes pIC50 72 hours [1]: < 4.3
- 48 pIC50 ([1]; figure 1A): < 4.3
- 72 pIC50 ([1]; figure 1A): < 4.3
- 72 pIC50 ([1]; figure 1B): < 4.3
- CYP51 pIC50 [2]: 7.1

Structure (SMILES): Cl.Clc1ccc(C(CC2CCCCO2)Cn2cncn2)c(Cl)c1 (centres unmarked) [TCMDC-143082]
- Trypomastigotes pIC50 48 hours [1]: < 4.3
- Trypomastigotes pIC50 72 hours [1]: < 4.3
- 48 pIC50 ([1]; figure 1A): < 4.3
- 72 pIC50 ([1]; figure 1A): < 4.3
- 72 pIC50 ([1]; figure 1B): < 4.3
- CYP51 pIC50 [2]: 6.6

Structure (SMILES): Cc1ccccc1OCC(=O)N1CCCN(c2cccnn2)CC1 [TCMDC-143495]
- Trypomastigotes pIC50 48 hours [1]: < 4.3
- Trypomastigotes pIC50 72 hours [1]: < 4.3
- 48 pIC50 ([1]; figure 1A): < 4.3
- 72 pIC50 ([1]; figure 1A): < 4.3
- 72 pIC50 ([1]; figure 1B): < 4.3
- CYP51 pIC50 [2]: 7.1

Structure (SMILES): Cc1c(CNC(=O)c2ccc(Cn3cc(Cl)c([N+](=O)[O-])n3)cc2)cnn1C [TCMDC-143153]
- Trypomastigotes pIC50 48 hours [1]: 4.7
- Trypomastigotes pIC50 72 hours [1]: 5.3
- CYP51 pIC50 [2]: < 4

Structure (SMILES): COc1cccc(-c2cc(C(F)(F)F)nc(-n3ccc([N+](=O)[O-])n3)n2)c1 [TCMDC-143105]
- Trypomastigotes pIC50 48 hours [1]: 5.8
- Trypomastigotes pIC50 72 hours [1]: 6
- CYP51 pIC50 [2]: < 4

Structure (SMILES): CC(C)Oc1ccc(C(=O)Nc2ccc(N3CCOCC3)c(Cl)c2)cc1 [TCMDC-143592]
- Trypomastigotes pIC50 48 hours [1]: < 4.3
- Trypomastigotes pIC50 72 hours [1]: < 4.3
- 48 pIC50 ([1]; figure 1A): < 4.3
- 72 pIC50 ([1]; figure 1A): < 4.3
- 72 pIC50 ([1]; figure 1B): < 4.3
- CYP51 pIC50 [2]: < 4

Structure (SMILES): CCCC(=O)N(Cc1ccccn1)c1nc2ccccc2s1 [TCMDC-143599]
- Trypomastigotes pIC50 48 hours [1]: < 4.3
- Trypomastigotes pIC50 72 hours [1]: < 4.3
- 48 pIC50 ([1]; figure 1A): < 4.3
- 72 pIC50 ([1]; figure 1A): < 4.3
- 72 pIC50 ([1]; figure 1B): < 4.3
- CYP51 pIC50 [2]: 7.3

Structure (SMILES): O=C(NCCc1nc(-c2ccc(F)c(F)c2)n[nH]1)C1CCCCC1 [TCMDC-143466]
- Trypomastigotes pIC50 48 hours [1]: < 4.3
- Trypomastigotes pIC50 72 hours [1]: 4.5
- CYP51 pIC50 [2]: 4.6

Structure (SMILES): CN(Cc1nc2ccccc2s1)C(=O)C=Cc1cc2ccccc2o1 [TCMDC-143354]
- Trypomastigotes pIC50 48 hours [1]: 4.4
- Trypomastigotes pIC50 72 hours [1]: < 4.3
- CYP51 pIC50 [2]: 6.8

Structure (SMILES): COc1ccc2ncc(F)c(NC(=O)[C@]3(O)CC[C@@H](NCc4ccc5c(c4)OCCO5)CC3)c2n1.Cl [TCMDC-143507]
- Trypomastigotes pIC50 48 hours [1]: 4.4
- Trypomastigotes pIC50 72 hours [1]: 4.4
- 48 pIC50 ([1]; figure 1A): 4.4
- 72 pIC50 ([1]; figure 1A): 4.4
- 72 pIC50 ([1]; figure 1B): 4.4
- CYP51 pIC50 [2]: 4.2

Structure (SMILES): N#Cc1c(Oc2cccc(Cl)c2)cccc1[N+](=O)[O-] [TCMDC-143608]
- Trypomastigotes pIC50 48 hours [1]: 6.9
- Trypomastigotes pIC50 72 hours [1]: 6.9
- 48 pIC50 ([1]; figure 1A): 6.9
- 72 pIC50 ([1]; figure 1A): 6.9
- 72 pIC50 ([1]; figure 1B): 6.9
- CYP51 pIC50 [2]: < 4

Structure (SMILES): O=C(NCCNc1noc(-c2ccc([N+](=O)[O-])cc2)n1)c1ccc(Cl)cc1 [TCMDC-143241]
- Trypomastigotes pIC50 48 hours [1]: 5.4
- Trypomastigotes pIC50 72 hours [1]: 5.5
- CYP51 pIC50 [2]: < 4

Structure (SMILES): Nc1ncnc2c1ncn2[C@@H]1O[C@H](CO)C[C@H]1O [TCMDC-143080]
- Trypomastigotes pIC50 48 hours [1]: < 4.3
- Trypomastigotes pIC50 72 hours [1]: 6
- CYP51 pIC50 [2]: < 4

Structure (SMILES): CS(=O)(=O)O.Cc1cc(Br)cc(C(=O)c2c(C(C)C)c(=O)[nH]c(=O)n2Cc2ccnc(N)c2)c1 [TCMDC-143626]
- Trypomastigotes pIC50 48 hours [1]: < 4.3
- Trypomastigotes pIC50 72 hours [1]: < 4.3
- 48 pIC50 ([1]; figure 1A): < 4.3
- 72 pIC50 ([1]; figure 1A): < 4.3
- 72 pIC50 ([1]; figure 1B): < 4.3
- CYP51 pIC50 [2]: 7.8

Structure (SMILES): CCC1Oc2cc(S(=O)(=O)N(C)CC(=O)N3CCc4ccccc4C3)c(C)cc2NC1=O (centres unmarked) [TCMDC-143332]
- Trypomastigotes pIC50 48 hours [1]: < 4.3
- Trypomastigotes pIC50 72 hours [1]: < 4.3
- 48 pIC50 ([1]; figure 1A): < 4.3
- 72 pIC50 ([1]; figure 1A): < 4.3
- 72 pIC50 ([1]; figure 1B): < 4.3
- CYP51 pIC50 [2]: 6.1

Structure (SMILES): Cc1ccc(CNC2CCN(C[C@@H]3Cn4c(=O)ccc5ccc(=O)n3c54)CC2)cc1F [TCMDC-143403]
- Trypomastigotes pIC50 48 hours [1]: < 4.3
- Trypomastigotes pIC50 72 hours [1]: < 4.3
- 48 pIC50 ([1]; figure 1A): < 4.3
- 72 pIC50 ([1]; figure 1A): < 4.3
- 72 pIC50 ([1]; figure 1B): < 4.3
- CYP51 pIC50 [2]: < 4

Structure (SMILES): CCN(CC)S(=O)(=O)c1ccc(Cn2nc(C(=O)Nc3ccncn3)c3ccccc32)cc1 [TCMDC-143288]
- Trypomastigotes pIC50 48 hours [1]: < 4.3
- Trypomastigotes pIC50 72 hours [1]: < 4.3
- 48 pIC50 ([1]; figure 1A): < 4.3
- 72 pIC50 ([1]; figure 1A): < 4.3
- 72 pIC50 ([1]; figure 1B): < 4.3
- CYP51 pIC50 [2]: 6.8

Structure (SMILES): CN(C)c1ccc(-c2cc3nccnc3c(OC[C@H]3CCCNC3)n2)cn1.Cl [TCMDC-143408]
- Trypomastigotes pIC50 48 hours [1]: 4.5
- Trypomastigotes pIC50 72 hours [1]: 5.2
- CYP51 pIC50 [2]: < 4

Structure (SMILES): c1cncc(CN(Cc2ccco2)Cc2cn[nH]c2-c2cccs2)c1 [TCMDC-143440]
- Trypomastigotes pIC50 48 hours [1]: 4.4
- Trypomastigotes pIC50 72 hours [1]: < 4.3
- CYP51 pIC50 [2]: 7.1

Structure (SMILES): CC1=C(C(=O)Nc2ccc(Cl)cc2)C(c2ccncc2)n2ncc(C(=O)Nc3ccccc3)c2N1 (centres unmarked) [TCMDC-143187]
- Trypomastigotes pIC50 48 hours [1]: < 4.3
- Trypomastigotes pIC50 72 hours [1]: < 4.3
- 48 pIC50 ([1]; figure 1A): < 4.3
- 72 pIC50 ([1]; figure 1A): < 4.3
- 72 pIC50 ([1]; figure 1B): < 4.3
- CYP51 pIC50 [2]: 6.9

Structure (SMILES): O=c1[nH]c(C=Cc2cccc(OCCOc3ccccc3)c2)nc(O)c1[N+](=O)[O-] [TCMDC-143209]
- Trypomastigotes pIC50 48 hours [1]: < 4.3
- Trypomastigotes pIC50 72 hours [1]: < 4.3
- 48 pIC50 ([1]; figure 1A): < 4.3
- 72 pIC50 ([1]; figure 1A): < 4.3
- 72 pIC50 ([1]; figure 1B): < 4.3
- CYP51 pIC50 [2]: < 4

Structure (SMILES): O=C(Cn1cnc2cc([N+](=O)[O-])ccc2c1=O)NCCc1ccc(Cl)cc1Cl [TCMDC-143519]
- Trypomastigotes pIC50 48 hours [1]: 5.9
- Trypomastigotes pIC50 72 hours [1]: 6.1
- CYP51 pIC50 [2]: < 4

Structure (SMILES): Cc1c([N+](=O)[O-])c(C(=O)Nc2sc3c(c2C#N)CCC(C)C3)nn1C (centres unmarked) [TCMDC-143155]
- Trypomastigotes pIC50 48 hours [1]: 5.3
- Trypomastigotes pIC50 72 hours [1]: 5.3
- 48 pIC50 ([1]; figure 1A): 5.3
- 72 pIC50 ([1]; figure 1A): 5.3
- 72 pIC50 ([1]; figure 1B): 5.3
- CYP51 pIC50 [2]: < 4

Structure (SMILES): CC(C(=O)Nc1ccccc1F)N(C)CC(=O)Nc1cccc2ccccc12 (centres unmarked) [TCMDC-143293]
- Trypomastigotes pIC50 72 hours [1]: < 4.3
- CYP51 pIC50 [2]: 4.8

Structure (SMILES): O=[N+]([O-])c1cccc(Nc2cncc(-c3ccccc3CO)c2)c1 [TCMDC-143559]
- Trypomastigotes pIC50 48 hours [1]: < 4.3
- Trypomastigotes pIC50 72 hours [1]: < 4.3
- 48 pIC50 ([1]; figure 1A): < 4.3
- 72 pIC50 ([1]; figure 1A): < 4.3
- 72 pIC50 ([1]; figure 1B): < 4.3
- CYP51 pIC50 [2]: 5.5

Structure (SMILES): CC1(Oc2cncc(Cl)c2)CCN(Cc2cc3ccccc3[nH]2)C1 (centres unmarked) [TCMDC-143162]
- Trypomastigotes pIC50 48 hours [1]: 5.6
- Trypomastigotes pIC50 72 hours [1]: 6.1
- CYP51 pIC50 [2]: 5

Structure (SMILES): C=CCn1nc([N+](=O)[O-])nc1Oc1ccc(Cl)cc1Cl [TCMDC-143151]
- Trypomastigotes pIC50 48 hours [1]: 6.1
- Trypomastigotes pIC50 72 hours [1]: 6.3
- CYP51 pIC50 [2]: 4.7
